Reference: PMC9514063 (Protein Science : A Publication of the Protein Society, 2022)

Molecular target: proBFT-3 (Bacteroides fragilis, UniProt O86049)
Test: isothermal titration calorimetry
Format: binding

Chain of proBFT-3 (O86049 18-397 limits assumed): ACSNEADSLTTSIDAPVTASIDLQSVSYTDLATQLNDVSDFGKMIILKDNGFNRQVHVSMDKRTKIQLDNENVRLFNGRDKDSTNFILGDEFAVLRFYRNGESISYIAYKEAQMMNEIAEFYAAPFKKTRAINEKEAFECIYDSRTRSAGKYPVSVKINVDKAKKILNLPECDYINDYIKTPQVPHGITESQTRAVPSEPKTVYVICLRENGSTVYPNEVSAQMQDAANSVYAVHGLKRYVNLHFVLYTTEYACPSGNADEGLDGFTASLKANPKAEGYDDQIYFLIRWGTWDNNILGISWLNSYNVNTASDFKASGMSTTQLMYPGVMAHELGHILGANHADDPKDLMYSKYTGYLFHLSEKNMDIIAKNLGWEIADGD

Row | Kd | SMILES
1 | 20 µM | C[C@@H]1CCc2cc(F)cc3c(=O)c(C(=O)O)cn1c23 [C-4, flumequine]
2 | 22 µM | COc1ccc([C@@H]2CC(=O)c3c(O)cc(O)cc3O2)cc1O [C-10, hesperetin]
